Like-named read-outs stand apart in the source and are kept apart here.
Experiments:
[1] = molecular target: T1, FXR (Homo sapiens, UniProt Q96RI1); experiment: GeneBLAzer FXR cell-based agonistic assay; parameters: the Gal4 DBD was fused to the LBD of FXR in this assay; host or cells: GeneBLAzer FXR-UAS-bla HEK 293T cells; conditions: without GW4064, 16 h
T1 sequence (Q96RI1 262-486 limits assumed): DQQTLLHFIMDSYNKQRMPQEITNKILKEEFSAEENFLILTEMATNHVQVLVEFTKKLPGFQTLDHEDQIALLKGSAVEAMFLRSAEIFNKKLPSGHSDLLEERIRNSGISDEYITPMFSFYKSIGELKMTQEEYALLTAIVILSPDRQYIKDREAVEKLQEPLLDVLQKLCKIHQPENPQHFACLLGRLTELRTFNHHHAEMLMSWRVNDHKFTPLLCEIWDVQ
Method: The reporter assays were performed after a16 h incubation.
(§1) FXR transactivation assays were performed using GeneBLAzer FXR-UAS-bla HEK 293T cells (Invitrogen). Cells were maintained according to the manufacturer's instructions. […] Plates were then incubated in dark for 90 min at room temperature before measuring the fluorescent emissions at 460 nm and 535 nm (using excitation at 400 nm) with an Envision plate reader with bottom read capacity. After background signal subtraction for individual emission channels, emission signals at 460 and 535 nm from each well were used to determine the ratio of 460 nm/535 nm. […] The % activation was calculated using equation 2.

[2] = molecular target: T1, FXR; experiment: FXR TR-FRET binding assay (DY246 fluorescent probe); conditions: for inhibition at 0.164 µM: at 164 nM; for IC50: mean ± SE
Method: The FXR TR-FRET binding assay was performed as previously described^23 with modifications. […] The plate was spun down after a brief shake and incubated at room temperature for 20 min. The TR-FRET emission signals at 520 nm and 490 nm for each well was then collected using a PHERAstar plate reader (BMG LABTECH, Cary, N.C.) with an excitation wavelength of 337 nm, 100-μs delay time, and 200-μs integration time. The 520 nm/490 nm ratio from each well was then calculated. […] The % inhibition of tested chemicals at given concentration was calculated based on negative and positive controls using equation 1.

[3] = molecular target: T1, FXR; experiment: GeneBLAzer FXR cell-based antagonistic assay (in presence of 400 nM GW4064); parameters: the Gal4 DBD was fused to the LBD of FXR in this assay; host or cells: GeneBLAzer FXR-UAS-bla HEK 293T cells; conditions: for IC50: with 400 nM GW4064, read-out: GB FXR Cell Anta. IC50
Method: A GeneBLAzer FXR cell-based assay was used to investigate the cellular activities of the 1,3,4-trisubstituted-pyrazol-4-carboxamide analogs. The assay detects the levels of a […] reporter controlled by a promoter containing the binding site of the DNA binding domain (DBD) of the GAL4 transcription factor; the Gal4 DBD was fused to the LBD of FXR in this assay.^35
as §1
The % inhibition was calculated using equation 3.

[4] = test system: GeneBLAzer FXR-UAS-bla HEK 293T cells; conditions: for GB FXR Cell Cyto % Inh.: human, 16 h, 40 μM
Method: (§2) To examine if certain chemical antagonistic effect was caused by cytotoxicity, the same GeneBLAzer FXR cells were used to perform cytotoxicity assay. This assay was set up like the FXR agonistic assay, with the exception of signal reading. Instead of detecting the reporter activities, CellTiter-Glo® assay was used to detect cell viability. DMSO with cells or without cells group were served as negative (0% Inhibition) or positive (100% Inhibition), respectively.
(§3) Cytotoxicity assays were performed side-by-side with the FXR agonistic assay using GeneBLAzer FXR-UAS-bla HEK 293T cells with CellTiter-Glo® Luminescent Cell Viability Assay reagent (Promega). Briefly, cells were maintained in DMEM supplemented with 10% dialyzed FBS, 0.1 mM non-essential amino acids, 25 mM HEPES, 100 μg/ml of hygromycin B, 100 μg/ml of zeocin, 100 units/ml penicillin and 100 μg/ml streptomycin in regular tissue culture flasks. […] As a positive control, the wells in column 24 of each plate were filled with 30 μL assay medium along with 0.5% DMSO. The final DMSO concentration was 0.5% in each assay well. After a 16 h incubation in a cell culture incubator at 37° C., the cell plates were cooled at room temperature for 20 min and then CellTiter-Glo® reagent 20 μl/well was added followed by an incubation for 20 min in the dark to allow the development of optimal luminescence signal. The luminescence signal from each well in plates was collected with an Envision plate reader equipped with Ultra-sensitive Luminescence detector. The DMSO group and no cell group served as negative (0% activation) and positive (100% activation) controls, respectively. The % inhibition was calculated using equation 4 below.

[5] = test system: GeneBLAzer FXR-UAS-bla HEK 293T cells; experiment: Cytotoxicity assay in GeneBLAzer FXR cells (CellTiter-Glo); conditions: class symbol NT
Method: as §2, §3

[6] = read-out: FXR TR-FRET Binding % Inh.
[7] = read-out: GB FXR Cell Anta. % Inh.

SMILES: COc1cccc(Cn2cc(C(=O)Nc3ccc(C)c(S(=O)(=O)N4CCOCC4)c3)c(-c3ccc(C)cc3)n2)c1 [Compound 4j, 1-(3-Methoxybenzyl)-N-(4-methyl-3-(morpholinosulfonyl)phenyl)-3-(p-tolyl)-1H-pyrazole-4-carboxamide]
- FXR agonistic activity [1]: no FXR agonistic activity
- inhibition at 0.164 µM [2, 6]: 130 ± 5.4%
- IC50 [2]: 7.5 nM
- fold more potent than Z26476908 in FXR TR-FRET binding assay ([2]; ratio of IC50 values): 5.26 fold
- FXR antagonistic activity, SAR statement in words [3]: enhanced antagonistic activity
- fold more potent than Z26476908 in antagonistic assay ([3]; ratio of IC50 values): 4.59 fold
- inhibition at 40 µM [3, 7]: 98.9 ± 4.3%
- IC50 [3]: 468 ± 8.4 nM
- cytotoxicity [4]: no cytotoxicity

SMILES: Cc1ccc(NC(=O)c2cn(C(C)C)nc2-c2ccc(C(F)(F)F)cc2)cc1S(=O)(=O)N1CCOCC1 [Compound 4p, 1-Isopropyl-N-(4-methyl-3-(morpholinosulfonyl)phenyl)-3-(4-(trifluoromethyl)phenyl)-1H-pyrazole-4-carboxamide]
- inhibition at 4.4 µM [2, 6]: 133 ± 5.3%
- IC50 [2]: 77.5 ± 3.7 nM
- inhibition at 40 µM [3, 7]: 100 ± 3.7%
- IC50 [3]: 1950 ± 280 nM
- GB FXR Cell Cyto % Inh. [4]: 19.5 ± 1.1%

SMILES: Cc1ccc(-c2nn(C(C)C)cc2C(=O)N(C)c2ccc(C)c(S(=O)(=O)N3CCOCC3)c2)cc1 [Compound 8-1, 1-Isopropyl-N-methyl-N-(4-methyl-3-(morpholinosulfonyl)phenyl)-3-(p-tolyl)-1H-pyrazole-4-carboxamide]
- inhibition at 40 µM [2, 6]: 133 ± 6.2%
- IC50 [2]: 489 ± 21.2 nM
- activity against FXR at 1 μM [3]: weak activity
- inhibition at 40 µM [3, 7]: 86.4 ± 2.8%
- IC50 [3]: 16200 nM
- GB FXR Cell Cyto % Inh. [4]: 15.0 ± 0.7%

SMILES: COc1cccc(Cn2cc(C(=O)N(C)c3ccc(C)c(S(=O)(=O)N4CCOCC4)c3)c(C(C)C)n2)c1 [Compound 8-2, 3-Isopropyl-1-(3-methoxybenzyl)-N-methyl-N-(4-methyl-3-(morpholinosulfonyl)phenyl)-1H-pyrazole-4-carboxamide]
- inhibition at 40 µM [2, 6]: 80.3 ± 5.2%
- IC50 [2]: 5330 ± 240 nM
- activity against FXR at 1 μM [3]: weak activity
- inhibition at 20 µM [3, 7]: 2.4 ± 0.1%
- GB FXR Cell Cyto % Inh. [4]: 13.5 ± 0.4 (40 μM) %

SMILES: COc1cccc(Cn2cc(C(=O)N(C)c3ccc(C)c(S(=O)(=O)N4CCOCC4)c3)c(-c3cccc(OC)c3)n2)c1 [Compound 8-3, 1-(3-Methoxybenzyl)-3-(3-methoxyphenyl)-N-methyl-N-(4-methyl-3-(morpholinosulfonyl)phenyl)-1H-pyrazole-4-carboxamide]
- inhibition at 40 µM [2, 6]: 69.7 ± 3.5%
- IC50 [2]: 3810 ± 200 nM
- activity against FXR at 1 μM [3]: weak activity
- inhibition at 40 µM [3, 7]: 23.8 ± 0.4%
- GB FXR Cell Cyto % Inh. [4]: 19.7 ± 0.4 (40 μM) %

SMILES: Cc1ccc(-c2nn(C(C)C)cc2CNc2ccc(C)c(S(=O)(=O)N3CCOCC3)c2)cc1 [Compound 9-1, N-((1-Isopropyl-3-(p-tolyl)-1H-pyrazol-4-yl)methyl)-4-methyl-3-(morpholinosulfonyl)aniline]
- inhibition at 13.3 µM ([2]; at 13.3 μM, read-out: FXR TR-FRET Binding % Inh.): 99.5 ± 2.6%
- IC50 [2]: 2040 ± 20 nM
- inhibition at 40 µM [3, 7]: 36.8 ± 0.3%
- GB FXR Cell Cyto % Inh. [4]: 10.5 ± 0.3%

SMILES: COc1cccc(Cn2cc(CNc3ccc(C)c(S(=O)(=O)N4CCOCC4)c3)c(C(C)C)n2)c1 [Compound 9-2, N-((3-Isopropyl-1-(3-methoxybenzyl)-1H-pyrazol-4-yl)methyl)-4-methyl-3-(morpholinosulfonyl)aniline]
- inhibition at 4.4 µM [2, 6]: 72.5 ± 2.7%
- IC50 [2]: 2310 ± 320 nM
- inhibition at 40 µM [3, 7]: 64.8 ± 1.9%
- IC50 [3]: 27800 ± 1540 nM
- GB FXR Cell Cyto % Inh. [4]: 13.9 ± 0.6 (40 μM) %

SMILES: Cc1ccc(-c2nn(-c3ccccc3)cc2C(=O)Nc2ccc(C)c(S(=O)(=O)N3CCOCC3)c2)cc1 [Compound Z26476908, reference compound]
- inhibition at 0.164 µM [2, 6]: 100 ± 5.2%
- IC50 [2]: 47 ± 5.1 nM
- inhibition at 40 µM [3, 7]: 77.2 ± 2.2%
- IC50 [3]: 2620 nM
- GB FXR Cell Cyto % Inh. [4]: 17.9 ± 0.5%

SMILES: CC(C)c1onc(-c2c(Cl)cccc2Cl)c1COc1ccc(/C=C/c2cccc(C(=O)O)c2)c(Cl)c1 [GW4064]
- GB FXR Cell Cyto % Inh. [5]: NT (NT: Not toxic (toxicity less than 5%))

SMILES: C[C@H](CCC(=O)O)[C@H]1CC[C@H]2[C@@H]3CC[C@@H]4C[C@H](O)CC[C@]4(C)[C@H]3CC[C@]12C [Lithocholic Acid, lithocholic acid]
- GB FXR Cell Cyto % Inh. [5]: NT (NT: Not toxic (toxicity less than 5%))

Reference: patent US10611729B2, “Farnesoid X receptor antagonists” (City of Hope, priority 2014, dated 2020)
